Test results as given in patent US8895035B2, “Alkoxyimino derivative and pest control agent” (Kumiai Chemical Industry Co., Ltd, priority 2010, dated 2014).

Experiments:
Format in all cases: in vivo
[1] = test system: Nilaparvata lugens Stál (brown rice planthopper); assay: Insecticidal action test for Nilaparvata lugens Stál (immersed sprouting rice); details: 144 h, 500 ppm active ingredient, sprouting unhulled rice immersed, 3-age larvae, 25° C., after 6 days, read-out: insect mortality
Procedure: A wettable powder prepared based on Formulation Example 2 was diluted with water so that the concentration of active ingredient became 500 ppm. In the diluted formulation were immersed sprouting unhulled rice. The immersed rice was placed in a plastic cup of 60 ml. Into the plastic cup were released 10 3-age larvae of Nilaparvata lugens Stál (brown rice planthopper). The cup was covered with a cap and placed in a thermostat of 25° C. After 6 days, the number of living insects was counted and the mortality of insect was calculated using the calculation formula of Mathematical Expression 1.

[2] = test system: Aphis gossipii Glover (cotton aphid, melon aphid); assay: Insecticidal action test for Aphis gossipii Glover (drench); details: soil, 72 h, 500 ppm active ingredient, 5 ml drenched to foot of cucumber seedlings with hatchlings, 25° C., after 3 days, read-out: insect mortality
Procedure: A wettable powder prepared based on Formulation Example 2 was diluted with water so that the concentration of active ingredient became 500 ppm. 5 ml of the resulting diluted formulation was drenched to the […] foot of cucumber seedlings on which the hatchlings of Aphis gossipii Glover were parasitic. The resulting cucumber seedlings were placed in a thermostat of 25° C. After 3 days, the number of living insects was calculated and the mortality of insect was calculated using the calculation formula of Mathematical Expression 1.

[3] = test system: Aphis gossipii Glover (cotton aphid, melon aphid); assay: Insecticidal action test for Aphis gossipii Glover (seedling immersion); details: 72 h, 500 ppm active ingredient, cucumber seedlings with hatchlings immersed, 25° C., after 3 days, read-out: insect mortality
Procedure: A wettable powder prepared based on Formulation Example 2 was diluted with water so that the concentration of active ingredient became 500 ppm. In the resulting liquid were immersed cucumber seedlings on which the hatchlings of Aphis gossipii Glover were parasitic, after which the cucumber seedlings were dried in the air. The resulting cucumber seedlings were placed in a thermostat of 25° C. After 3 days, the number of living insects was calculated and the mortality of insect was calculated using the calculation formula of the following Mathematical Expression 1. Insect mortality (%)=[1−(number of living insects)/(number of tested insects)]×100 [Mathematical Expression 1]

[4] = test system: Brown planthopper (Nilaparvata lugens); assay: Trial of systematic insecticidal activity against brown planthopper; details: 144 h, 1,800 ppm active ingredient, 250 μl poured to rice-plant foot of rice seedlings, 3-age larvae, 25° C., after 6 days, read-out: insect mortality
Procedure: A wettable powder prepared based on Formulation Example 2 was diluted with water so that the concentration of active ingredient became 1,800 ppm. 250 μl of the diluted formulation was poured to the rice-plant foot of 2.5-leaf age rice seedlings planted in a paper pot of 1.5 cm (length)×1.5 cm (width)×3 cm (height). Then, the paper pot was placed in a plastic cup of 700 ml. Into the plastic cup were released 5 3-age larvae of Nilaparvata lugens Stál (brown rice planthopper). The cup was covered with a cap and placed in a thermostat of 25° C. After 6 days, the number of living insects was counted and the mortality of insect was calculated using the calculation formula of Mathematical Expression 1.

Structure (SMILES)	mortality at 500 ppm [1]	mortality at 500 ppm [2]	mortality at 500 ppm [3]	mortality at 1800 ppm [4]
CC(C)ON=C(Cl)C(=NOC(C)C)n1cncn1 [I-4, 1-(2-chloro-1,2-diisopropoxyiminoethyl)-1H-1,2,4-triazole]	≥ 90%	≥ 90%	≥ 90%	≥ 90%
CC(C)ON=C(C#N)C(=NOC(C)C)n1cncn1 [I-50, 1-(2-cyano-1,2-diisopropoxyiminoethyl)-1H-1,2,4-triazole]	≥ 90%		≥ 90%	≥ 90%
CC(C)ON=C(C(N)=O)C(=NOC(C)C)n1cncn1 [I-73, 1-(2-carbamoyl-1,2-diisopropoxyiminoethyl)-1H-1,2,4-triazole]	≥ 90%			
CC(C)CON=C(N)C(=NOC(C)C)n1cncn1 [I-121, 1-(2-amino-2-isobutoxyimino-1-isopropoxyiminoethyl)-1H-1,2,4-triazole]	≥ 90%		≥ 90%	
CC(C)ON=C(Br)C(=NOC(C)C)n1cncn1 [I-142, 1-(2-bromo-1,2-diisopropoxyiminoethyl)-1H-1,2,4-triazole]	≥ 90%		≥ 90%	≥ 90%
COC(=NOC(C)C)C(=NOC(C)C)n1cncn1 [I-165, 1-(1,2-diisopropoxyimino-2-methoxyethyl)-1H-1,2,4-triazole]	≥ 90%		≥ 90%	≥ 90%
CC(C)ON=C(C(=NOC(C)C)n1cncn1)n1cncn1 [I-212, 1,2-diisopropoxyimino-1,2-bis(1H-1,2,4-triazol-1-yl)ethane]	≥ 90%		≥ 90%	
CC(C)ON=C(C(=NOC(C)C)n1cncn1)c1nnn[nH]1 [I-213, 1-[1,2-diisopropoxyimino-2-(1H-tetrazol-5-yl)ethyl]-1H-1,2,4-triazole]	≥ 90%			
CSC(=NOC(C)C)C(=NOC(C)C)n1cncn1 [I-228, 1-(2-methylthio-1,2-diisopropoxyiminoethyl)-1H-1,2,4-triazole]	≥ 90%		≥ 90%	≥ 90%
CC(=NOC(C)C)C(=NOC(C)C)n1ccnc1 [I-273, 1-(1,2-diisopropoxyiminopropyl)imidazole]	≥ 90%		≥ 90%	≥ 90%
CON=C(C(=NOC(C)C)C(=O)OC)n1cncn1 [II-221, 1-(2-isopropoxyimino-2-methoxycarbonyl-1-methoxyiminoethyl)-1H-1,2,4-triazole]	≥ 90%		≥ 90%	
CCSC(=O)C(=NOC(C)C)C(=NOC)n1cncn1 [II-222, S-ethyl 2-isopropoxyimino-3-methoxyimino-3-(1H-1,2,4-triazol-1-yl)propanethioate]	≥ 90%		≥ 90%	
CON=C(C(=NOC(C)C)C(N)=S)n1cncn1 [II-224, 1-(2-isopropoxyimino-2-thiocarbamoyl-1-methoxyiminoethyl)-1H-1,2,4-triazole]	≥ 90%		≥ 90%	≥ 90%
CCCCON=C(C#N)C(=NOCC)n1cncn1 [III-51, 1-(2-n-butoxyimino-2-cyano-1-ethoxyiminoethyl)-1H-1,2,4-triazole]	≥ 90%		≥ 90%	
CCCCON=C(C(N)=O)C(=NOCC)n1cncn1 [III-74, 1-(2-n-butoxyimino-2-carbamoyl-1-ethoxyiminoethyl)-1H-1,2,4-triazole]	≥ 90%			
CCCON=C(C#N)C(=NOCCC)n1cncn1 [IV-90, 1-[2-cyano-1,2-bis(n-propoxyimino)ethyl]-1H-1,2,4-triazole]	≥ 90%		≥ 90%	
CCCON=C(C(N)=O)C(=NOCCC)n1cncn1 [IV-101, 1-[2-carbamoyl-1,2-bis(n-propoxyimino)ethyl]-1H-1,2,4-triazole]	≥ 90%			≥ 90%
N#CC(=NOCC(F)(F)C(F)(F)F)C(=NOCC(F)(F)F)n1cncn1 [IV-185, 1-[2-cyano-2-(2,2,3,3,3-pentafluoro-n-propoxyimino)-1-(2,2,2-trifluoroethoxyimino)ethyl]-1H-1,2,4-triazole]	≥ 90%			
CC(=NOC(C)C)C(=NOC(C)C)n1ccnc1S [V-10, 1-(1,2-diisopropoxyiminopropyl)-2-mercaptoimidazole]	≥ 90%		≥ 90%	
